Assay results taken from patent EP0551434B1 (BOARD OF REGENTS THE UNIVERSITY OF TEXAS SYSTEM, priority 1990, dated 1992).
Like-named read-outs stand apart in the source and are kept apart here.

How the values were obtained:
[1] = test system: MCF7; test: Inhibition of MCF7 breast tumor cell growth in vitro (72 hour exposure, MTT tetrazolium dye assay); format: cell-based, human
Method: The MCF7 cell line is a human tumor cell line. This cell line was cultured in MEM( (Eagles) media in a 5% C0^2 atmosphere with 10% fetal calf serum that had been washed twice with dextran coated charcoal to reduce endogenous estrogen levels. The media was supplemented with 1 mM sodium pyruvate and 100 µm non-essential amino acids. The cell line was screened routinely for myoplasma contamination using the GenProbe kit (Fisher). Cells were trypsinized and plated at a density of 5,000 cells/well in 96 well microtiter plates and allowed to attach and recover for 24 hours.
The media was removed by aspiration and replaced with filter sterilized drug (concentration from 10-^4 M to […]) in media. The cells were incubated for 72 hours and then stained using the MTT tetrazolium dye assay of Mosmann^36 except that after the media was removed, the blue formazan product was solubilized in 50 µl/well DMSO.

[2] = target: T1, estrogen receptor (Sus scrofa, UniProt Q29040)
T1 sequence (Q29040 1-595): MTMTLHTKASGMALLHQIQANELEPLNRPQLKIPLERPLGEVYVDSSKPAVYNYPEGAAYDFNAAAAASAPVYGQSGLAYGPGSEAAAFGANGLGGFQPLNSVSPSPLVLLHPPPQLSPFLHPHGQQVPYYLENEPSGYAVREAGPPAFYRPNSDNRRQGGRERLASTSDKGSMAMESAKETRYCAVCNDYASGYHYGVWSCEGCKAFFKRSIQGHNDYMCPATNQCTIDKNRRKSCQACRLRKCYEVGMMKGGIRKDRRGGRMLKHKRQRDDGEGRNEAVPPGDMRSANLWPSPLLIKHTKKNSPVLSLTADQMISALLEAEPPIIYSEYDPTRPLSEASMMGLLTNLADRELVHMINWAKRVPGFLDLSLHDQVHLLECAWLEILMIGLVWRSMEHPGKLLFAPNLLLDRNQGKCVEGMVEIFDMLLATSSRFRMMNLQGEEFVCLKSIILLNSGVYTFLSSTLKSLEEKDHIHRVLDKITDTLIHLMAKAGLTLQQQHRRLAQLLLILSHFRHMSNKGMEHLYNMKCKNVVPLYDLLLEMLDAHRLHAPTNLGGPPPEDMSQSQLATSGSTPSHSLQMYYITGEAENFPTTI

[3] = target: T1, estrogen receptor; test: biochemical
[4] = Uterus to muscle ratio (tissue uptake, method not described); conditions: in vivo
[5] = In vivo tissue uptake of ^131I-IMTX (trans) in rat
[6] = IC50(uM), concentration required to decrease bound [^3H]estradiol by 50%, average of three experiments
[7] = IC-50 estrogen receptor binding, [^3H]estradiol (5 nM)
[8] = Homo sapiens, MCF7, 72 h, Table 6, 72 hour exposure, average of three experiments, read-out: IC50 Dose
[9] = Homo sapiens, MCF7, text values b172, read-out: IC50 MCF7 cell inhibition (converted)
[10] = Table 6, relative potency, IC50 ratio between tamoxifen and competitor, tamoxifen = 100

Work on Fluorotamoxifen [Compound VII (Trans)] yielded an IC50 ([1]; comparative compounds IV and VII, average of three experiments, read-out: IC50 Dose) of 11.8 µM and an RP ([1]; comparative compounds IV and VII, relative potency, tamoxifen = 100) of 93.
With `CCN(CC)CCOc1ccc(/C(=C(/CCCI)c2ccccc2)c2ccccc2)cc1` [X (trans)] the RBA [2] was 15, the “RBA*” value [2] was 1,500 and the “fold higher affinity for the estrogen receptor than native tamoxifen” value [2] was 15 fold. It also gave a Ki ([2]; [^3H]estradiol 5 nM, 4°C) of 1000 nM, a Ki [3] of 1000 nM and an IC50 ([3]; IC50(M), [^3H]estradiol 5 nM, 4°C) of 2e-06 M. It also gave an IC50 [3, 6] of 2e-06 M, an IC50 [3, 7] of 2e-06 M and an IC50 [1, 8] of 6.3 µM. For the same compound, the IC50 [1, 9] was 6.3 µM and the RP [1, 10] was 175.
In the case of `CCN(CC)CCOc1ccc(/C(=C(/CCCI)c2ccccc2)c2ccccc2)cc1` [Compound X], the “fold higher affinity for the estrogen receptor than native tamoxifen” value [2] is reported as 10-15 fold, the IC50 [3, 7] is reported as 2e-06 M and the “uterus to muscle ratio” value [4] is reported as 3.6.
With `CCN(CC)CCOc1ccc(C(=C(CCF)c2ccccc2)c2ccccc2)cc1` (single isomer, unassigned) [Compound IV (Trans), N,N-diethyl-fluorotamoxifen] the RP [1] was 82.
Compound `CCN(CC)CCOc1ccc(C(=C(CCF)c2ccccc2)c2ccccc2)cc1` (single isomer, unassigned) [Compound IV (Cis), N,N-diethyl-fluorotamoxifen] has an RP [1] of 268.
In the case of `CCN(CC)CCOc1ccc(/C(=C(/CCCBr)c2ccccc2)c2ccccc2)cc1` [Compound XI (trans), 1-[4-(2-Diethylaminoethoxy)phenyl]-1,2-diphenyl-5-bromo-1-entene], the RBA ([2]; IC50 ratio between tamoxifen and competitor, tamoxifen printed as 1) is reported as 150, the IC50 [3, 6] is reported as 2e-07 M and the IC50 [3, 7] is reported as 2e-07 M. It also gave an IC50 ([1]; Homo sapiens, MCF7, 72 h, read-out: IC50 Dose (µM)) of 4.9 µM and an RP [1, 10] of 298.
For `CCN(CC)CCOc1ccc(/C(=C(/CCCF)c2ccccc2)c2ccccc2)cc1` [Compound VI (trans)], the IC50 [1, 8] was 11.8 µM, the IC50 [1, 9] was 11.8 µM and the RP [1, 10] was 93.
For `CCN(CC)CCOc1ccc(C(=C(CCC[131I])c2ccccc2)c2ccccc2)cc1` (single isomer, unassigned) [^131 I-IMTX (trans)], the Uterus/blood ratio ([5]; 3h) was 1.6, the Uterus/blood ratio ([5]; 6h) was 1.5 and the Uterus/blood ratio ([5]; 24h) was 1.2. It also gave a tissue uptake liver ([5]; n=5, 3h) of 5.3 ± 0.84 % injected dose per organ, a tissue uptake uterus ([5]; n=5, 3h) of 0.5 ± 0.04 % injected dose per organ and a tissue uptake liver ([5]; n=5, 6h) of 3.0 ± 0.02 % injected dose per organ. It also gave a tissue uptake liver ([5]; n=5, 24h) of 1.7 ± 0.21 % injected dose per organ and a tissue uptake uterus ([5]; n=5, 24h) of 0.01 ± 0.001 % injected dose per organ.
For `CCN(CC)CCOc1ccc(/C(=C(/CCCCl)c2ccccc2)c2ccccc2)cc1` [Compound XII (trans), 1[4-(2-Diethylaminoethoxy)phenyl]-1,2-diphenyl-5-chloro-1-pentene], the RBA [2] was 75, the IC50 ([1]; Table 6, 72 hour exposure, average of three experiments, read-out: IC50 Dose) was 10 µM and the RP [1, 10] was 146.
